One data set has as its system rice d10 variant. Nature of the data set: Tiller (rice branching) inhibitory activity in hydroponic culture. Format: in vivo. Conditions: for activity of inhibiting the morphology of the tiller / length of the secondary tiller: rice d10 variant; for length of the secondary tiller: compared with untreated d10 variant (Figure 4). The procedure: In this Example, a rice d10 variant (Arite et al., Plant J, 51 (6) 1019-1029 (2007)) was used, and the strigolactone-like compound of the present invention was examined for its effects on this variant. […] In this d10 variant, the functions of a strigolactone biosynthetic enzyme are inhibited by the variation of the strigolactone biosynthetic gene so that the amount of endogenous strigolactone is decreased.
First, rice seeds were sterilized for 30 minutes with 2.5% sodium hypochlorite containing 0.01% Tween-20 and then washed with sterilized water. Then, the seeds were germinated by culture for 2 days in sterilized water of 25°C under dark conditions. The germinated seeds were transferred to a hydroponic culture medium containing 0.6% agar and grown for 6 days under conditions of a 16-hour light period and an 8-hour dark period under a fluorescent light. […] The number of tillers and the length of each tiller were determined. In this context, the test compounds used were the strigolactone-like compounds BPMF, TFTF, CPMF, NPMF, FPMF, and IPMF shown in Figure 1A, NaMF described in Synthesis Example 3, and GR24 as a control at a concentration of 1 µM, 100 nM, or 10 nM.
In the same way as in Example 1(1), the strigolactone-like compound was examined for its effects on rice tillers.
In this context, the test compounds used were p-CPMF, m-CPMF, o-CPMF, o-FPMF (1-14), o-BPMF (1-15), p-BPMF, 1-NaphMF (1-16), 2-NaphMF (NaMF), CNMF (1-17), CQMF (1-19), and TeMF (1-18) and GR24 as a control at a concentration of 1 µM or 100 nM. Also, PMF and p-CBMF were used at a concentration of 1 µM.
In this context, the test compounds used were 2-1 (2,3-DCMF), 2-2 (2,4-DCMF), 2-3 (2,5-DCMF), and 2-4 (2,6-DCMF) at a concentration of 1 µM, 100 nM, or 10 nM and GR24 as a control at a concentration of 1 µM or 100 nM.
In this context, the test compounds used were p-BPMF, 2,4-DCMF (2-2), o-BBMF (3-1), o-BPMF (1-15), o-CBMF (3-2), o-CPMF, and o-FPMF (1-14) at a concentration of 100 nM or 10 nM, 2-16, 2-6, 2-17, 2-18, and 2-19 at a concentration of 0.1 µM or 1 µM, and GR24 as a control at a concentration of 1 µM or 100 nM.

The conditions of data set [1]: in water at 20°C; cited from earlier work.
For data set [2], the system named is Arabidopsis thaliana max3 variant. Nature of the data set: Branching inhibitory activity in hydroponic culture. Conditions: for activity of inhibiting the morphology of the tiller of the max3 variant: 5 µM in hydroponic culture solution, 15 days (Figure 6). Format: in vivo. The source says: In this Example, the strigolactone-like compound BPMF of the present invention was examined for its effects on an Arabidopsis thaliana max3 variant. The Arabidopsis thaliana max3 variant is a strigolactone-deficient variant, as in the rice d10 variant, and is known to have a larger number of branches (Booker J. et al., Current Biology, 14: 1232-1238 (2004)).
Briefly speaking, the surfaces of the respective seeds of wild-type Arabidopsis thaliana and the max3 variant were separately sterilized for 5 minutes with a 1% aqueous sodium hypochlorite solution. The thus-treated seeds of each strain were washed five times with sterilized water and allowed to absorb water at 4°C for 1 day under dark conditions. Then, the seeds were inoculated to a 1/2 MS medium containing 1% sucrose and 0.8% agar and cultured at 22°C for 15 days under conditions of a 16-hour day length under a fluorescent light (60 to 70 µmol m^-2 s^-1). […] Nine healthy seedlings were selected from each pot and further hydroponically cultured for 15 days (a total of 30 days) so as to prevent the above-ground part from being wetted by the hydroponic culture solution. The test compounds used were BPMF and GR24 (control). The test compound-containing hydroponic culture solution was replaced every three days.

Data set [3] is described as follows: Stability test in water (residual compound by HPLC). Conditions: 30 days in water at 20°C, read-out: stably present after being left in water. The class given is physicochemical. The procedure: The strigolactone-like compound BPMF was left for 30 days in water at 20°C, and change in its activity was then determined. Briefly speaking, rice was hydroponically cultured in the same way as in the hydroponic rice culture solution test conducted in Example 3, and the amount of a residual compound in the resulting solution was calculated using HPLC. First, the hydroponic culture solution adjusted to a predetermined concentration was collected at regular intervals and filtered through a filter. Then, a predetermined amount (e.g., 10 µl) was analyzed by HPLC. The content was determined on the basis of an area value, and the degree of decomposition was calculated by comparison with a standard.

Another data set relates to endogenous strigolactone. Nature of the data set: Measurement of amount of endogenous strigolactone (LC/MS-MS). The class given is in vivo, rice (Shiokari). Conditions: 24 hours, 0.1 µM, 1 µM or 10 µM. The procedure: In this Example, the amount of strigolactone exudates from a plant treated with the strigolactone-like compound was measured.
A sterilized solution I (2.5% sodium hypochlorite and 0.01% Tween-20) was added to rice seeds (Shiokari) and shaken at room temperature for 15 minutes. The sterilized solution I was discarded, and a sterilized solution II (2.5% sodium hypochlorite) was added thereto and shaken at room temperature for 15 minutes. In a clean bench, the sterilized solution II was discarded, and the seeds were washed five times with sterilized water and left standing at 25°C for 2 days in a dark place. Two days later, the germinated seeds were transplanted in an agar medium for hydroponic rice culture and left standing at 25°C for 6 days under conditions of a 16-hour light period and an 8-hour dark period. […]
To each hydroponic rice culture solution, 200 pg of d1-2'-epi-5-deoxystrigol per 10 mL of the hydroponic rice culture solution was added, followed by extraction with ethyl acetate (3 mL) twice. […] The sample was dried, dissolved in 50% acetonitrile, and analyzed by LC/MS-MS.
To the rice root dipped in acetone, 200 pg of d1-2'-epi-5-deoxystrigol was added, and the root was then disrupted. […] The sample was dried, dissolved in 50% acetonitrile, and analyzed by LC/MS-MS.

For another data set, the system named is parasitic weed. Kind of data set: Parasitic weed germination-inducing activity (result not shown). The class given is in vivo. Conditions: compared with p-BPMF. The procedure:
In this Example, the seeds of a parasitic weed Orobanche minor or Striga hermonthica were used, and the strigolactone-like compound of the present invention was examined for its parasitic weed germination-promoting activity.
The Striga hermonthica seeds were dipped in a 0.5% sodium hypochlorite solution containing 0.03% Tween and sterilized by treatment for 3 minutes using an ultrasonic generator. The seeds were washed three times with sterilized water and surface-dried at 27°C. Then, approximately 50 seeds were left, for preculture, at room temperature for 10 to 12 days under dark conditions on an 8-mm glass fiber filter paper moistened with 50 µl of sterilized water. A solution of each test compound concentration-adjusted by dissolution in sterilized water was used in bioassay. A filter paper was placed on a 5-cm Petri dish, and 1 ml of the test compound solution or sterilized water for comparison was added thereto. The glass fiber filter paper with the precultured parasitic weed seeds placed thereon was put on the resulting Petri dish and cultured at 30°C for 24 hours, followed by calculation of the germination rate. The test compounds used were the strigolactone-like compound BPMF shown in Figure 1A and GR24 as control at a concentration of 50 µM. […]

The mark [4] stands for this setting: concentration of 100 nM, Example 8 (Figure 14).
Setting [5] is: concentration of 100 nM, Example 10 (Figures 16-1, 16-2).

On to `CC1=CC(Oc2cccc(Cl)c2Cl)OC1=O` (stereo not shown) [2-1], for which the “activity of inhibiting the morphology of the tiller” value in the data set with rice d10 variant (setting [4]) was “high activity”.

`CC1=CC(Oc2ccc(Cl)cc2Cl)OC1=O` (stereo not shown) [2-2]: the “activity of inhibiting the morphology of the tiller” value in the data set on rice d10 variant (setting [4]) and in the data set with rice d10 variant (setting [5]) was “high activity” each time.

Take `CC1=CC(Oc2cc(Cl)ccc2Cl)OC1=O` (stereo not shown) [2-3]: in the data set with rice d10 variant (setting [4]), the “activity of inhibiting the morphology of the tiller” value was “high activity”.

Turning to `CC1=CC(Oc2ccc(Br)cc2Br)OC1=O` (stereo not shown) [2-6], the “activity of inhibiting the morphology of the tiller” value in the data set on rice d10 variant (setting [5]) is “high activity”.

For the molecule `CC1=CC(Oc2ccc(F)cc2F)OC1=O` (stereo not shown) [2-16], in the data set on rice d10 variant (setting [5]), the “activity of inhibiting the morphology of the tiller” value is “high activity”.

`CC1=CC(Oc2ccc(I)cc2I)OC1=O` (stereo not shown) [2-17]: the “activity of inhibiting the morphology of the tiller” value in the data set on rice d10 variant (setting [5]) was “high activity”.

`CC1=CC(Oc2ccc(C(F)(F)F)cc2C(F)(F)F)OC1=O` (stereo not shown) [2-18]: in the data set on rice d10 variant (setting [5]), the “activity of inhibiting the morphology of the tiller” value is recorded as “high activity”.

`CC1=CC(Oc2ccc(C#N)cc2C#N)OC1=O` (stereo not shown) [2-19]: the “activity of inhibiting the morphology of the tiller” value with rice d10 variant (setting [5]) was “high activity”.

With `CC1=CC(OC=C2C(=O)OC3C4=C(CCCC4(C)C)CC23)OC1=O` (stereo not shown) [5-DS], in data set [1], the half-life entry was “approximately 1.5 days”.

For the molecule `CC1=CC(Oc2ccc(Br)cc2)OC1=O` (stereo not shown) [BPMF, 5-(4-bromophenoxy)-3-methylfuran-2(5H)-one], in the data set on rice d10 variant (after 12-day growth, 10 µM (Figure 3)), the “morphology of the d10 variant” value is “restored its morphology similar to that of the wild-type strain”. Moreover, the “concentration-dependent activity against the rice d10 variant” value in the data set on rice d10 variant (compared with GR24 (Figure 4)) was “strong activity, which was larger than that of the typical non-natural strigolactone GR24”. Moreover, the “time-dependent change in the number of tillers” value in the data set on rice d10 variant (d10 variant, 27, 37 and 47 days after treatment with 1 nM or 10 nM (Figure 5)) was “more effective and have more persistent activity than GR24”. Besides, the “length of the secondary tiller” value with rice d10 variant was “obviously inhibited”. Also, the “activity of inhibiting the morphology of the tiller” value with rice d10 variant (concentration of 10 nM (Figure 2)) is “strongest activity”; in the data set on rice d10 variant (concentration of 100 nM, Example 6 (Figures 12-1 to 12-3)), “strongest activity”; with rice d10 variant (setting [5]) it was “high activity”. Also, the “activity of inhibiting the morphology of the tiller of the max3 variant” value in data set [2] is “exhibited the activity of inhibiting the morphology of the tiller of the max3 variant”. In data set [2] (after 30-day growth, 1 µM (Figure 7)), the “morphology of the max3 variant” value is “restored its morphology similar to that of the wild-type strain”. The remaining at 720 h in data set [3] was at least 95%. Further, in the data set on endogenous strigolactone (compared with GR24 (Figure 10)), the “amount of endogenous strigolactone exudates from the rice root to the hydroponic culture solution” value is “decreased the amount of natural strigolactone synthesized, and this effect was higher than that of GR24”. Further, the “amount of plant natural strigolactone synthesized” value with endogenous strigolactone (in the hydroponic rice culture solution and the rice root) is “decreased”.

Regarding `CC1=CC(OC=C2C(=O)OC3c4ccccc4CC23)OC1=O` (stereo not shown) [GR24, reference compound], in data set [2], the “activity of inhibiting the morphology of the tiller of the max3 variant” value is recorded as “exhibited the activity of inhibiting the morphology of the tiller of the max3 variant”. Also, the half-life result in data set [1] is listed as “approximately 10 days”.

In the case of `CC1=CC(Oc2ccc3ccccc3c2)OC1=O` (stereo not shown) [NaMF], the “activity of inhibiting the morphology of the tiller” value in the data set with rice d10 variant (6 days in hydroponic solution with compound at 1 µM, 100 nM or 10 nM (Figure 2)) is recorded as “slightly weaker than that of the other compounds”.

On to `CC1=CC(Oc2ccc(C(F)(F)F)cc2)OC1=O` (stereo not shown) [TFTF], for which the “length of the secondary tiller” value with rice d10 variant is “obviously inhibited”.

For the molecule `CC1=CC(Oc2ccccc2Br)OC1=O` (stereo not shown) [o-BPMF], the tiller inhibitory activity entry with rice d10 variant (result not shown) is given as “weak tiller inhibitory activity”. Moreover, in the data set with rice d10 variant (setting [5]), the “activity of inhibiting the morphology of the tiller” value is “high activity”. Further, in the data set on parasitic weed, the “parasitic weed germination-inducing activity” value is reported as “stronger parasitic weed germination-inducing activity than that of p-BPMF”.

As to `CC1=CC(Oc2ccccc2Cl)OC1=O` (stereo not shown) [o-CPMF], in the data set with rice d10 variant (setting [5]), the “activity of inhibiting the morphology of the tiller” value is given as “high activity”.

Take `CC1=CC(Oc2ccccc2F)OC1=O` (stereo not shown) [o-FPMF]: the “activity of inhibiting the morphology of the tiller” value with rice d10 variant (setting [5]) is given as “high activity”.

The record behind these values is patent publication EP2623502A1, “NOVEL COMPOUND HAVING STRIGOLACTONE-LIKE ACTIVITY AND USE THEREOF” (Riken, priority 2010, dated 2012).
